Test results: PMC9403976, “Elucidating the path to Plasmodium prolyl-tRNA synthetase inhibitors that overcome halofuginone resistance” (Nature Communications, 2022)
pIC50: −log10 of the molar value. Where “and” joins values, the source holds several entries; their conditions need not be identical. Equal values may be shown once. Read-outs that look alike come from different tables or passages of the source.

How the values were obtained:
HsProRS = HsProRS (Homo sapiens, UniProt P07814); experiment: TR-FRET ligand displacement assay with tracer MAT379 (CoraFluor-1-Halo and anti-His6 antibody formats); type: binding; parameters: made in house; host or cells: E. coli SoluBL-21; settings: for TR-FRET dose-response, normalized signal (SI Fig 11): individual replicates
Sequence of HsProRS (P07814 996-1512): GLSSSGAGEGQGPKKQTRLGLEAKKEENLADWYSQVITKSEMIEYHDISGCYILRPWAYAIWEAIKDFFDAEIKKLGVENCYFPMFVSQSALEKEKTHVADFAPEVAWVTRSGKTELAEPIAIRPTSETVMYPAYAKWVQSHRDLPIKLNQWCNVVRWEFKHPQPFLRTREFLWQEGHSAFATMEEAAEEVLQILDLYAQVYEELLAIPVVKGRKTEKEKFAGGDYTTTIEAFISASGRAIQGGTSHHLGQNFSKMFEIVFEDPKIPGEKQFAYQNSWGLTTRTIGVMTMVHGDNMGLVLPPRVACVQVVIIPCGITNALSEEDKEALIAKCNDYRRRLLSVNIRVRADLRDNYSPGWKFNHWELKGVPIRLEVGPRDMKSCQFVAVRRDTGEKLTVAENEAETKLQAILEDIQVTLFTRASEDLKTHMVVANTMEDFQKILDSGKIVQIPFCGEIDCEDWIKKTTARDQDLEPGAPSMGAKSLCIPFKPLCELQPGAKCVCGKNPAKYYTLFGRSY

PfcProRS = target: T1, PfcProRS (Plasmodium falciparum, UniProt Q8I5R7); type: binding; settings: single replicates
T1 construct: made in house; host or cells: E. coli SoluBL-21
T1 sequence (Q8I5R7 249-746): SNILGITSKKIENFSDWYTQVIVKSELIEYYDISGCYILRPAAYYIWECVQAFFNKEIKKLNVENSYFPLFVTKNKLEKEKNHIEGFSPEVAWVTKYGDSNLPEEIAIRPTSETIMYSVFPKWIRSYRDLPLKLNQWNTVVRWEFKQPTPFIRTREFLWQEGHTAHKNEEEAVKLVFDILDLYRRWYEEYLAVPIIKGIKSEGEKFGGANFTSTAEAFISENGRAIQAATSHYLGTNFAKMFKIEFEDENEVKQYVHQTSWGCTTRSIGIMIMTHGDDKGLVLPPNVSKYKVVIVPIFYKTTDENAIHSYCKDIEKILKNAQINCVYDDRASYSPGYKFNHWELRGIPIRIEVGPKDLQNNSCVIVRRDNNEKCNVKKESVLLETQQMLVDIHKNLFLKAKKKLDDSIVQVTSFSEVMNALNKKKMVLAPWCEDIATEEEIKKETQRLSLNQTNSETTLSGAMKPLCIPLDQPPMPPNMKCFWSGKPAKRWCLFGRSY

## NCC1CCN(C(=O)Nc2nccnc2C(=O)NC2Cc3ccccc3C2)CC1 [compound 10]
HsProRS
  pIC50: < 5.00
HsProRS; HsProRS (KD [nM]) + 100 μM proline mean, + 100 μM proline
  Kd: 1360 nM
HsProRS; Log[inhibitor] (M) -5.000
  normalized TR-FRET ligand displacement signal, dose-response replicates (SI Fig 6): 7.52E-01 and 7.79E-01 and 7.62E-01
  TR-FRET dose-response, normalized signal (SI Fig 11): 6.05E-01 and 5.95E-01 and 6.36E-01
HsProRS; Log[inhibitor] (M) -5.301
  normalized TR-FRET ligand displacement signal, dose-response replicates (SI Fig 6): 8.20E-01 and 8.88E-01 and 8.92E-01
  TR-FRET dose-response, normalized signal (SI Fig 11): 6.96E-01 and 7.22E-01 and 7.09E-01
HsProRS; Log[inhibitor] (M) -5.601
  normalized TR-FRET ligand displacement signal, dose-response replicates (SI Fig 6): 9.12E-01 (2×) and 9.52E-01
  TR-FRET dose-response, normalized signal (SI Fig 11): 8.44E-01 and 7.94E-01 and 8.38E-01
HsProRS; Log[inhibitor] (M) -5.904
  normalized TR-FRET ligand displacement signal, dose-response replicates (SI Fig 6): 1.12E+00 and 9.84E-01 and 8.91E-01
  TR-FRET dose-response, normalized signal (SI Fig 11): 8.92E-01 and 8.20E-01 and 8.24E-01
HsProRS; Log[inhibitor] (M) -6.208
  normalized TR-FRET ligand displacement signal, dose-response replicates (SI Fig 6): 9.97E-01 and 8.76E-01 and 9.90E-01
  TR-FRET dose-response, normalized signal (SI Fig 11): 8.69E-01 and 8.29E-01 and 9.13E-01
HsProRS; Log[inhibitor] (M) -6.509
  normalized TR-FRET ligand displacement signal, dose-response replicates (SI Fig 6): 9.61E-01 and 1.04E+00 and 9.10E-01
  TR-FRET dose-response, normalized signal (SI Fig 11): 9.27E-01 and 8.13E-01 and 9.47E-01
HsProRS; Log[inhibitor] (M) -6.796
  normalized TR-FRET ligand displacement signal, dose-response replicates (SI Fig 6): 1.04E+00 and 1.06E+00 and 1.01E+00
  TR-FRET dose-response, normalized signal (SI Fig 11): 9.41E-01 and 8.80E-01 and 8.81E-01
HsProRS; Log[inhibitor] (M) -7.108
  normalized TR-FRET ligand displacement signal, dose-response replicates (SI Fig 6): 1.05E+00 and 9.51E-01 and 1.07E+00
  TR-FRET dose-response, normalized signal (SI Fig 11): 8.72E-01 and 9.00E-01 and 8.74E-01
HsProRS; Log[inhibitor] (M) -7.409
  normalized TR-FRET ligand displacement signal, dose-response replicates (SI Fig 6): 8.85E-01 and 9.14E-01 and 8.87E-01
  TR-FRET dose-response, normalized signal (SI Fig 11): 8.90E-01 and 8.97E-01 and 8.75E-01
HsProRS; Log[inhibitor] (M) -7.710
  normalized TR-FRET ligand displacement signal, dose-response replicates (SI Fig 6): 9.64E-01 (2×) and 8.88E-01
  TR-FRET dose-response, normalized signal (SI Fig 11): 8.83E-01 and 8.58E-01 and 9.38E-01
HsProRS; Log[inhibitor] (M) -8.000
  normalized TR-FRET ligand displacement signal, dose-response replicates (SI Fig 6): 9.97E-01 and 1.02E+00 and 9.70E-01
  TR-FRET dose-response, normalized signal (SI Fig 11): 9.01E-01 and 9.27E-01 and 9.34E-01
HsProRS; Log[inhibitor] (M) -8.301
  normalized TR-FRET ligand displacement signal, dose-response replicates (SI Fig 6): 9.79E-01 and 9.25E-01 and 8.62E-01
  TR-FRET dose-response, normalized signal (SI Fig 11): 8.32E-01 and 8.76E-01 and 8.86E-01
HsProRS; Log[inhibitor] (M) -8.602
  normalized TR-FRET ligand displacement signal, dose-response replicates (SI Fig 6): 1.04E+00 and 9.88E-01 and 8.85E-01
  TR-FRET dose-response, normalized signal (SI Fig 11): 8.91E-01 and 9.03E-01 and 9.02E-01
HsProRS; Log[inhibitor] (M) -9.000
  normalized TR-FRET ligand displacement signal, dose-response replicates (SI Fig 6): 9.73E-01 and 8.88E-01 and 1.05E+00
  TR-FRET dose-response, normalized signal (SI Fig 11): 9.24E-01 and 8.78E-01 and 8.94E-01
HsProRS; Log[inhibitor] (M) -9.301
  normalized TR-FRET ligand displacement signal, dose-response replicates (SI Fig 6): 9.62E-01 and 9.69E-01 and 9.04E-01
  TR-FRET dose-response, normalized signal (SI Fig 11): 9.15E-01 and 8.48E-01 and 8.61E-01
HsProRS; no added proline/ATP (-), 10 μM
  HsProRS % signal at 10 μM: 61.2%
PfcProRS; Log[inhibitor] (M) -5.000
  dose-response signal (normalized), SI Fig 8: 6.00E-01 and 6.56E-01 and 6.73E-01
PfcProRS; Log[inhibitor] (M) -5.301
  dose-response signal (normalized), SI Fig 8: 9.19E-01 and 8.61E-01 and 8.50E-01
PfcProRS; Log[inhibitor] (M) -5.601
  dose-response signal (normalized), SI Fig 8: 9.17E-01 and 9.92E-01 and 9.34E-01
PfcProRS; Log[inhibitor] (M) -5.904
  dose-response signal (normalized), SI Fig 8: 9.34E-01 and 1.02E+00 and 9.14E-01
PfcProRS; Log[inhibitor] (M) -6.208
  dose-response signal (normalized), SI Fig 8: 1.16E+00 and 1.11E+00 and 8.47E-01
PfcProRS; Log[inhibitor] (M) -6.509
  dose-response signal (normalized), SI Fig 8: 1.03E+00 and 1.08E+00 and 9.82E-01
PfcProRS; Log[inhibitor] (M) -6.796
  dose-response signal (normalized), SI Fig 8: 9.55E-01 and 9.28E-01 and 9.85E-01
PfcProRS; Log[inhibitor] (M) -7.108
  dose-response signal (normalized), SI Fig 8: 9.16E-01 and 1.02E+00 and 1.03E+00
PfcProRS; Log[inhibitor] (M) -7.409
  dose-response signal (normalized), SI Fig 8: 1.06E+00 and 1.03E+00 and 1.09E+00
PfcProRS; Log[inhibitor] (M) -7.710
  dose-response signal (normalized), SI Fig 8: 8.76E-01 and 1.01E+00 and 9.98E-01
PfcProRS; Log[inhibitor] (M) -8.000
  dose-response signal (normalized), SI Fig 8: 1.02E+00 and 1.09E+00 and 1.14E+00
PfcProRS; Log[inhibitor] (M) -8.301
  dose-response signal (normalized), SI Fig 8: 1.04E+00 (2×) and 9.07E-01
PfcProRS; Log[inhibitor] (M) -8.602
  dose-response signal (normalized), SI Fig 8: 1.06E+00 and 9.87E-01 and 1.02E+00
PfcProRS; Log[inhibitor] (M) -9.000
  dose-response signal (normalized), SI Fig 8: 9.95E-01 and 1.10E+00 and 1.11E+00
PfcProRS; Log[inhibitor] (M) -9.301
  dose-response signal (normalized), SI Fig 8: 9.71E-01 and 8.41E-01 and 1.04E+00
